Assay results published in the supplement of paper PMC4862054.
Several values for one entry are separate records, joined by “and”; a condition that tells them apart may be missing. Equal entries are not always repeated.

What was measured:
Details in all cases: incubation time: 72 h
[1] = system: SK-BR-3; test: normalised viability (% of control), CellTiter-Blue; higher = more viable cells (about 100 = DMSO control)
How it was run: (§1)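 Compound dissolved in 5 µl medium was pre-loaded into 384-well plates, and breast cancer cell lines in 20 µl suspension were seeded on top and incubated 72 h. After adding 2.5 µl CellTiter-Blue reagent for 2 h at 37 °C, fluorescence was read at 560/590 nm. Plates were normalised to vehicle (100) and a positive kill control (0), with Z'-factor quality control. Each value is normalised viability at a single listed concentration from the series.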

[2] = system: HCC1143; test: as above
How it was run: as §1

[3] = system: BT-474; test: as above
How it was run: as §1

[4] = system: DU-4475; test: as above
How it was run: as §1

[5] = system: MDA-MB-436; test: as above
How it was run: as §1

[6] = system: CAL-51; test: as above
How it was run: as §1

[7] = system: Hs578T; test: as above
How it was run: as §1

[8] = system: MDA-MB-453; test: as above
How it was run: as §1

[9] = system: MDA-MB-231; test: drug sensitivity score (DSS), CellTiter-Blue viability (DSS (AUC-based score)); higher = stronger viability inhibition; extreme values may be limits of the assay
Experimental: (§2)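 DSRT with the CellTiter-Blue (resazurin reduction) viability readout, fluorescence 560/590 nm, 72 h incubation. Plates were normalised to DMSO and benzethonium chloride controls. DSS is computed from the area under the fitted dose-response curve (5 or 9 concentrations).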

[10] = system: MDA-MB-468; test: as above
Experimental: as §2

[11] = system: CAL-120; test: as above
Experimental: as §2

[12] = system: MFM-223; test: as above
Experimental: as §2

[13] = system: SK-BR-3; test: as above
Experimental: as §2

[14] = system: HCC1143; test: as above
Experimental: as §2

[15] = system: HCC1937; test: as above
Experimental: as §2

[16] = system: BT-474; test: as above
Experimental: as §2

[17] = system: CAL-148; test: as above
Experimental: as §2

[18] = system: DU-4475; test: as above
Experimental: as §2

[19] = system: MDA-MB-436; test: as above
Experimental: as §2

[20] = system: CAL-51; test: as above
Experimental: as §2

[21] = system: BT-549; test: as above
Experimental: as §2

[22] = system: Hs578T; test: as above
Experimental: as §2

[23] = system: MDA-MB-453; test: as above
Experimental: as §2

[24] = system: HDQ-P1; test: as above
Experimental: as §2

[25] = system: HCC1599; test: as above
Experimental: as §2

[26] = system: CAL-85-1; test: as above
Experimental: as §2

| Compound | normalised viability ([1]; 100 nM) | normalised viability ([2]; 100 nM) | drug sensitivity score [9] | drug sensitivity score [10] | drug sensitivity score [11] | drug sensitivity score [12] | drug sensitivity score [13] | drug sensitivity score [14] | drug sensitivity score [15] | drug sensitivity score [16] | drug sensitivity score [17] | drug sensitivity score [18] | drug sensitivity score [19] | drug sensitivity score [20] | drug sensitivity score [21] | drug sensitivity score [22] | drug sensitivity score [23] | drug sensitivity score [24] | drug sensitivity score [25] | drug sensitivity score [26] | further results |
| --- | --- | --- | --- | --- | --- | --- | --- | --- | --- | --- | --- | --- | --- | --- | --- | --- | --- | --- | --- | --- | --- |
| NC(=O)c1cccc2cn(-c3ccc([C@@H]4CCCNC4)cc3)nc12 [MK-4827] | 78% | 87.2% | 0 | 0 | 0 | 0 | 0 | 3.49 | 8.54 | 0 | 2.86 | 6.73 | 0 | 5.3 | 0 | 0 | 0 | 0 | 0 | 0 | normalised viability ([3]; 100 nM): 104%; normalised viability ([4]; 10 nM): 90.9%; normalised viability ([5]; 100 nM): 95.1%; normalised viability ([6]; 10 nM): 110%; normalised viability ([7]; 100 nM): 92.1%; normalised viability ([8]; 10 nM): 91.1% |
| N[C@@H](Cc1ccc(N(CCCl)CCCl)cc1)C(=O)O [Melphalan] |  |  | 0 | 0 | 0 | 0 | 0 | 0 | 9.6 | 0 | 0 | 0 | 0 | 0 | 0 | 3.68 | 0 | 0 | 0 | 0 | normalised viability ([1]; 9.9 nM): 86.9%; normalised viability ([2]; 9.9 nM): 74.2%; normalised viability ([3]; 9.9 nM): 99.3%; normalised viability ([4]; 0.99 nM): 105%; normalised viability ([5]; 9.9 nM): 87.2%; normalised viability ([6]; 0.99 nM): 104%; normalised viability ([7]; 9.9 nM): 75.8%; normalised viability ([8]; 0.99 nM): 108% |
| Cc1c(C(=O)Nc2ccc(N3C[C@@H](C)O[C@@H](C)C3)nc2)cccc1-c1ccc(OC(F)(F)F)cc1 [NVP-LDE225] | 71.1% | 92.5% | 0 | 0 | 0 | 0 | 0 | 0 | 0 | 0 | 0 | 0 | 0 | 0 | 0 | 0 | 0 | 0 | 0 | 0 | normalised viability ([3]; 100 nM): 93.3%; normalised viability ([4]; 10 nM): 103%; normalised viability ([5]; 100 nM): 73.2%; normalised viability ([6]; 10 nM): 99.7%; normalised viability ([7]; 100 nM): 72.5%; normalised viability ([8]; 10 nM): 110% |
| O=C(c1cc(Cc2n[nH]c(=O)c3ccccc23)ccc1F)N1CCN(C(=O)C2CC2)CC1 [Olaparib] | 81.2% | 88.2% | 0 | 2.78 | 0 | 0 | 0.543 | 0 | 11.2 | 0 | 0 | 3.83 | 0 | 3.33 | 0 | 0 | 0 | 0 | 0 | 0 | normalised viability ([3]; 100 nM): 105%; normalised viability ([4]; 10 nM): 97.5%; normalised viability ([5]; 100 nM): 107%; normalised viability ([6]; 10 nM): 101%; normalised viability ([7]; 100 nM): 80.9%; normalised viability ([8]; 10 nM): 97.8% |
| CO[C@H](C(=O)[C@@H](O)[C@@H](C)O)[C@@H]1Cc2cc3cc(O[C@H]4C[C@@H](O[C@@H]5C[C@@H](O)[C@H](O)[C@@H](C)O5)[C@H](O)[C@@H](C)O4)c(C)c(O)c3c(O)c2C(=O)[C@H]1O[C@H]1C[C@@H](O[C@@H]2C[C@@H](O)[C@@H](O[C@@H]3C[C@](C)(O)[C@H](O)[C@@H](C)O3)[C@@H](C)O2)[C@H](O)[C@@H](C)O1 [Plicamycin] | 30.8% and 21.9% | 46% and 30.6% | 26 and 26.4 | 29.9 and 30.3 | 22.5 and 23.6 | 18.2 and 19 | 25 and 27.1 | 22.2 and 25.5 | 21.1 and 22.3 | 16.8 and 17.6 | 25.6 and 24.2 | 28 and 28.2 | 23.3 and 27.5 | 22.1 and 22.3 | 27.1 and 27.9 | 28 and 31.7 | 22.7 and 24.3 | 17.6 and 22.2 | 18.9 and 20.2 | 22.8 and 23.8 | normalised viability ([3]; 100 nM): 73.2% and 72.3%; normalised viability ([4]; 10 nM): 88.6% and 110%; normalised viability ([5]; 100 nM): 30.2% and 23.4%; normalised viability ([6]; 10 nM): 98.2% and 109%; normalised viability ([7]; 100 nM): 13% and 6.55%; normalised viability ([8]; 10 nM): 111% and 91.1% |
| C[C@]12C=CC(=O)C=C1CC[C@@H]1[C@@H]2C(=O)C[C@@]2(C)[C@H]1CC[C@]2(O)C(=O)CO [Prednisone] | 77% | 101% | 0 | 0 | 0 | 0 | 0 | 0 | 0 | 0 | 0 | 0 | 0 | 0 | 0 | 0 | 0 | 0 | 0 | 0 | normalised viability ([3]; 100 nM): 117%; normalised viability ([4]; 10 nM): 97.9%; normalised viability ([5]; 100 nM): 108%; normalised viability ([6]; 10 nM): 102%; normalised viability ([7]; 100 nM): 77.9%; normalised viability ([8]; 10 nM): 112% |
| CO[C@H]1C[C@@H]2CC[C@@H](C)[C@@](O)(O2)C(=O)C(=O)N2CCCC[C@H]2C(=O)O[C@H]([C@H](C)C[C@@H]2CC[C@@H](O)[C@H](OC)C2)CC(=O)[C@H](C)/C=C(\C)[C@@H](O)[C@@H](OC)C(=O)[C@H](C)C[C@H](C)/C=C/C=C/C=C/1C [Sirolimus] |  |  | 0 | 14.2 | 17.3 | 21.3 | 15.4 | 10.1 | 20.4 | 0 | 19.8 | 15 | 0 | 23.8 | 20.8 | 14.4 | 27.8 | 13.2 | 9.43 | 17 | normalised viability ([1]; 10 nM): 59.1%; normalised viability ([2]; 10 nM): 67.9%; normalised viability ([3]; 10 nM): 65.9%; normalised viability ([4]; 1 nM): 85.1%; normalised viability ([5]; 10 nM): 82.5%; normalised viability ([6]; 1 nM): 62.6%; normalised viability ([7]; 10 nM): 58.2%; normalised viability ([8]; 1 nM): 54.3% |
| CN1CCN(c2nc(C3=C(c4c[nH]c5ccccc45)C(=O)NC3=O)c3ccccc3n2)CC1 [Sotrastaurin] | 73% | 133% | 0 | 0 | 0 | 0 | 0 | 0 | 0 | 0 | 0 | 0 | 0 | 0 | 0 | 0 | 0 | 0 | 0 | 0 | normalised viability ([3]; 100 nM): 108%; normalised viability ([4]; 10 nM): 95%; normalised viability ([5]; 100 nM): 96.3%; normalised viability ([6]; 10 nM): 88.2%; normalised viability ([7]; 100 nM): 79.9%; normalised viability ([8]; 10 nM): 93.4% |
| CC/C(=C(\c1ccccc1)c1ccc(OCCN(C)C)cc1)c1ccccc1 [Tamoxifen] | 90.7% | 126% | 0 | 3.95 | 0 | 0 | 0 | 0 | 0 | 0 | 0 | 0 | 2.35 | 0 | 1.73 | 0 | 2.6 | 0 | 0 | 0 | normalised viability ([3]; 100 nM): 112%; normalised viability ([4]; 10 nM): 94.1%; normalised viability ([5]; 100 nM): 97.5%; normalised viability ([6]; 10 nM): 92%; normalised viability ([7]; 100 nM): 91.7%; normalised viability ([8]; 10 nM): 257% |
| COc1cc2c(N3CCN(C(=O)Nc4ccc(OC(C)C)cc4)CC3)ncnc2cc1OCCCN1CCCCC1 [Tandutinib] |  |  | 0 | 0 | 0 | 0 | 0 | 0 | 0 | 0 | 0.668 | 0 | 0 | 0 | 0 | 0 | 0 | 0 | 0 | 0 | normalised viability ([1]; 10 nM): 84.3%; normalised viability ([2]; 10 nM): 125%; normalised viability ([3]; 10 nM): 123%; normalised viability ([4]; 1 nM): 107%; normalised viability ([5]; 10 nM): 102%; normalised viability ([6]; 1 nM): 109%; normalised viability ([7]; 10 nM): 94.5%; normalised viability ([8]; 1 nM): 110% |
| C[C@@H](C(=O)O)c1ccc(-c2ccccc2)c(F)c1 [Tarenflurbil] | 84.8% | 98.8% | 0 | 0 | 0 | 0 | 0 | 0 | 0 | 0 | 0 | 0 | 0 | 0 | 0 | 0 | 1.49 | 0 | 0 | 0 | normalised viability ([3]; 100 nM): 109%; normalised viability ([4]; 10 nM): 114%; normalised viability ([5]; 100 nM): 122%; normalised viability ([6]; 10 nM): 118%; normalised viability ([7]; 100 nM): 72.9%; normalised viability ([8]; 10 nM): 99.5% |
| Cn1nnc2c(C(N)=O)ncn2c1=O [Temozolomide] | 96.2% | 85.4% | 0 | 0 | 0 | 0 | 0 | 0 | 0 | 0 | 0 | 0 | 0 | 0 | 2.1 | 0 | 0 | 1.58 | 0 | 0 | normalised viability ([3]; 100 nM): 98.2%; normalised viability ([4]; 10 nM): 124%; normalised viability ([5]; 100 nM): 94.5%; normalised viability ([6]; 10 nM): 98.5%; normalised viability ([7]; 100 nM): 81.3%; normalised viability ([8]; 10 nM): 101% |
